Data as given in ChEMBL document CHEMBL1821700, “SAR by interligand nuclear overhauser effects (ILOEs) based discovery of acylsulfonamide compounds active against Bcl-x(L) and Mcl-1” (J Med Chem, 2011).

How the values were obtained:
Bcl-2-like protein 1 [1] = target: T1, Bcl-2-like protein 1 (Homo sapiens, UniProt Q07817); test: Binding affinity to Bcl-xL by 2D- NOESY analysis
[2] = target: Induced myeloid leukemia cell differentiation protein Mcl-1 (Homo sapiens, UniProt Q07820); test: Displacement of FITC labeled Bak BH3 peptide from Mcl-1 after 2 mins by Fluorescence Polarization assay
Induced myeloid leukemia cell differentiation protein Mcl-1, sequence (Q07820 whole entry): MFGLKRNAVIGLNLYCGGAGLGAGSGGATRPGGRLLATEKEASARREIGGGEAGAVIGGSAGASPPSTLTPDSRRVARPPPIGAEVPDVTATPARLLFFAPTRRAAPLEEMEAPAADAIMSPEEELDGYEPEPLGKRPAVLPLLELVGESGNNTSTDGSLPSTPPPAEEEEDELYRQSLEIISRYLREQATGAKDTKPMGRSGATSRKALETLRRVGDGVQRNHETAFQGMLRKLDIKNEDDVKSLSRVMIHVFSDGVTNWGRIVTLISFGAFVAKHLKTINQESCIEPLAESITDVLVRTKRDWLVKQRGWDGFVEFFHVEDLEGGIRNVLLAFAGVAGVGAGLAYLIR

Bcl-2-like protein 1 [3] = target: T1, Bcl-2-like protein 1; test: Displacement of FITC labeled Bak BH3 peptide from Bcl-xL after 10 mins by Fluorescence Polarization assay

T1 sequence (Q07817 whole entry): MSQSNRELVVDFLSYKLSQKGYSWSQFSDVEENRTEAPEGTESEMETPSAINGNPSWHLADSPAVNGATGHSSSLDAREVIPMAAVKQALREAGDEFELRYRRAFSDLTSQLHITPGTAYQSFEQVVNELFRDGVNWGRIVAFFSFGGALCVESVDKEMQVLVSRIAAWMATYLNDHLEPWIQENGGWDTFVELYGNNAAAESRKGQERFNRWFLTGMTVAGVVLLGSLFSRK

With `O=C(O)c1ccc(-c2ccc(F)cc2)cc1` as the molecule, how does the Kd (Bcl-2-like protein 1 [1]) read?
The Kd was 300 µM.

`O=C(O)c1ccccc1N1CCCCC1` was tested. Which Kd (Bcl-2-like protein 1 [1]) did it give?
The Kd was 378 µM.

What does the source list for `O=C(NS(=O)(=O)c1ccc(COc2ccccc2)cc1)c1ccc(-c2ccccc2)cc1`?
IC50 [2]: 43.2 µM; IC50 (Bcl-2-like protein 1 [3]): 16.8 µM

How did the IC50 [2] turn out when `O=C(NS(=O)(=O)c1ccc(COc2ccccc2)cc1)c1cccc(-c2ccccc2)c1` was run?
Its IC50 is 25.4 µM.

What about the IC50 (Bcl-2-like protein 1 [3]) of the same molecule?
The IC50 was 15.1 µM.

What does the source list for `O=C(NS(=O)(=O)c1ccc(COc2ccccc2)cc1)c1ccccc1-c1ccccc1`?
IC50 [2]: > 1000 µM; IC50 (Bcl-2-like protein 1 [3]): 42.7 µM

Which results are given for `O=C(NS(=O)(=O)c1ccc(COc2ccccc2)cc1)c1ccc(-c2ccc(F)cc2)cc1`?
IC50 [2]: 16.6 µM; IC50 (Bcl-2-like protein 1 [3]): 9.37 µM

For `O=C(NS(=O)(=O)c1ccc(COc2ccccc2)cc1)c1ccc(-c2ccc(Cl)cc2)cc1`, which IC50 [2] is on record?
The IC50 was 7.26 µM.

What about the IC50 (Bcl-2-like protein 1 [3]) of the same molecule?
Its IC50 is 3.79 µM.

With `O=C(NS(=O)(=O)c1ccc(COc2ccccc2)cc1)c1ccc(-c2cc(Cl)cc(Cl)c2)cc1` as the molecule, how does the IC50 [2] read?
The IC50 was 2.51 µM.

What about the IC50 (Bcl-2-like protein 1 [3]) of the same molecule?
The IC50 was 4.14 µM.

What does the source list for `O=C(NS(=O)(=O)c1ccc(Oc2ccccc2)cc1)c1ccc(-c2ccccc2)cc1`?
IC50 [2]: 3.56 µM; IC50 (Bcl-2-like protein 1 [3]): 28 µM

`O=C(NS(=O)(=O)c1ccc(Oc2ccccc2)cc1)c1ccc(-c2ccc(F)cc2)cc1` was tested. Which IC50 [2] did it give?
Its IC50 is 17.8 µM.

What about the IC50 (Bcl-2-like protein 1 [3]) of the same molecule?
The IC50 was 33.5 µM.

Which IC50 [2] does the source give for `O=C(NS(=O)(=O)c1ccc(Oc2ccccc2)cc1)c1ccc(-c2cc(Cl)cc(Cl)c2)cc1` here?
The IC50 was 5.08 µM.

And the IC50 (Bcl-2-like protein 1 [3])?
Its IC50 is 49.5 µM.

For `O=C(NS(=O)(=O)c1ccc(OCc2ccccc2)cc1)c1ccc(-c2cc(Cl)cc(Cl)c2)cc1`, which IC50 [2] is on record?
The IC50 was 6.3 µM.

What about the IC50 (Bcl-2-like protein 1 [3]) of the same molecule?
The IC50 was 3.19 µM.

With `O=C(NS(=O)(=O)c1ccc(-c2ccccc2)cc1)c1ccc(Oc2ccccc2)cc1` as the molecule, how does the IC50 [2] read?
Its IC50 is > 1000 µM.

And the IC50 (Bcl-2-like protein 1 [3])?
The IC50 was 161 µM.

Which IC50 [2] does the source give for `O=C(NS(=O)(=O)c1ccc(COc2ccccc2)cc1)c1cccc(-c2ccc(C(F)(F)F)cc2)c1` here?
Its IC50 is 8.37 µM.

And the IC50 (Bcl-2-like protein 1 [3])?
Its IC50 is 6.2 µM.

Which IC50 [2] does the source give for `O=C(NS(=O)(=O)c1ccc(COc2ccccc2)cc1)c1cccc(-c2cc(Cl)cc(Cl)c2)c1` here?
The IC50 was 7.57 µM.

What about the IC50 (Bcl-2-like protein 1 [3]) of the same molecule?
The IC50 was 0.31 µM.

Which IC50 [2] does the source give for `O=C(NS(=O)(=O)c1ccc(OCc2ccccc2)cc1)c1cccc(-c2cc(Cl)cc(Cl)c2)c1` here?
Its IC50 is 0.22 µM.

And the IC50 (Bcl-2-like protein 1 [3])?
The IC50 was 0.18 µM.

Which results are given for `O=C(NS(=O)(=O)c1ccc(COc2ccccc2)cc1)c1cccc(-c2ccc(Cl)cc2Cl)c1`?
IC50 [2]: 8.69 µM; IC50 (Bcl-2-like protein 1 [3]): 9.98 µM

For `O=C(NS(=O)(=O)c1ccc(COc2ccccc2)cc1)c1cccc(-c2ccc(Cl)c(Cl)c2)c1`, which IC50 [2] is on record?
The IC50 was 5.76 µM.

What about the IC50 (Bcl-2-like protein 1 [3]) of the same molecule?
Its IC50 is 7.15 µM.

`O=C(NS(=O)(=O)c1ccc(Oc2ccccc2)cc1)c1cccc(-c2ccccc2)c1` was tested. Which IC50 [2] did it give?
Its IC50 is 3.24 µM.

What about the IC50 (Bcl-2-like protein 1 [3]) of the same molecule?
Its IC50 is 28.5 µM.

What does the source list for `O=C(NS(=O)(=O)c1ccc(Oc2ccccc2)cc1)c1cccc(-c2cc(Cl)cc(Cl)c2)c1`?
IC50 [2]: 7.11 µM; IC50 (Bcl-2-like protein 1 [3]): 2.53 µM

How did the IC50 [2] turn out when `O=C(NS(=O)(=O)c1ccc(Oc2ccccc2)nc1)c1cccc(-c2cc(Cl)cc(Cl)c2)c1` was run?
The IC50 was 9.78 µM.

And the IC50 (Bcl-2-like protein 1 [3])?
Its IC50 is 2.31 µM.

`O=C(NS(=O)(=O)c1ccc(Oc2ccccc2)cc1)c1cccc(-c2cccc(Cl)c2Cl)c1` was tested. Which IC50 [2] did it give?
The IC50 was 4.76 µM.

And the IC50 (Bcl-2-like protein 1 [3])?
Its IC50 is 4.08 µM.

How did the IC50 [2] turn out when `O=C(NS(=O)(=O)c1ccc(Oc2ccccc2)cc1)c1cccc(-c2ccc(Cl)cc2Cl)c1` was run?
Its IC50 is 3.72 µM.

What about the IC50 (Bcl-2-like protein 1 [3]) of the same molecule?
Its IC50 is 1.94 µM.

Which IC50 [2] does the source give for `O=C(NS(=O)(=O)c1ccc(Oc2ccccc2)cc1)c1cccc(-c2ccc(Cl)c(Cl)c2)c1` here?
The IC50 was 2.48 µM.

And the IC50 (Bcl-2-like protein 1 [3])?
Its IC50 is 1.97 µM.

With `COc1ccc(-c2cccc(C(=O)NS(=O)(=O)c3ccc(Oc4ccccc4)cc3)c2)cc1OC` as the molecule, how does the IC50 [2] read?
Its IC50 is 42.6 µM.

What about the IC50 (Bcl-2-like protein 1 [3]) of the same molecule?
The IC50 was > 1000 µM.

`O=C(NS(=O)(=O)c1ccc2ccccc2c1)c1cccc(-c2ccc(Cl)c(Cl)c2)c1` was tested. Which IC50 [2] did it give?
The IC50 was 13.2 µM.

What about the IC50 (Bcl-2-like protein 1 [3]) of the same molecule?
The IC50 was 10.9 µM.

Which results are given for `CCCCOc1ccc(S(=O)(=O)NC(=O)c2cccc(-c3ccc(Cl)c(Cl)c3)c2)cc1`?
IC50 [2]: 38.8 µM; IC50 (Bcl-2-like protein 1 [3]): 12.1 µM

How did the IC50 [2] turn out when `O=C(NS(=O)(=O)c1ccc(OCc2ccccc2)cc1)c1cccc(-c2ccc(Cl)c(Cl)c2)c1` was run?
Its IC50 is 4.88 µM.

What about the IC50 (Bcl-2-like protein 1 [3]) of the same molecule?
The IC50 was 2.96 µM.

How did the IC50 [2] turn out when `O=C(NS(=O)(=O)c1ccc(OCC2CCCCC2)cc1)c1cccc(-c2ccc(Cl)c(Cl)c2)c1` was run?
The IC50 was 0.62 µM.

What about the IC50 (Bcl-2-like protein 1 [3]) of the same molecule?
The IC50 was 0.16 µM.

With `COc1ccccc1Oc1ccc(S(=O)(=O)NC(=O)c2cccc(-c3ccc(Cl)c(Cl)c3)c2)cc1` as the molecule, how does the IC50 [2] read?
Its IC50 is 6.63 µM.

And the IC50 (Bcl-2-like protein 1 [3])?
The IC50 was 3.76 µM.

Which results are given for `N#Cc1c(Cl)cccc1Oc1ccc(S(=O)(=O)NC(=O)c2cccc(-c3ccc(Cl)c(Cl)c3)c2)cc1`?
IC50 [2]: 3.18 µM; IC50 (Bcl-2-like protein 1 [3]): 2.7 µM

Which results are given for `O=C(NS(=O)(=O)c1ccc(Oc2c(Cl)cccc2[N+](=O)[O-])cc1)c1cccc(-c2ccc(Cl)c(Cl)c2)c1`?
IC50 [2]: 3.04 µM; IC50 (Bcl-2-like protein 1 [3]): 2 µM

With `O=C(NS(=O)(=O)c1ccc(Oc2cc(C(F)(F)F)cc(C(F)(F)F)c2)cc1)c1cccc(-c2ccc(Cl)c(Cl)c2)c1` as the molecule, how does the IC50 [2] read?
The IC50 was 3.04 µM.

And the IC50 (Bcl-2-like protein 1 [3])?
Its IC50 is 2.94 µM.

Which IC50 [2] does the source give for `O=C(NS(=O)(=O)c1ccc(Oc2ccc(F)cc2)cc1)c1cccc(-c2ccc(Cl)c(Cl)c2)c1` here?
The IC50 was 3.91 µM.

What about the IC50 (Bcl-2-like protein 1 [3]) of the same molecule?
The IC50 was 2.87 µM.

Which IC50 [2] does the source give for `CCOc1ccc(Oc2ccc(S(=O)(=O)NC(=O)c3cccc(-c4ccc(Cl)c(Cl)c4)c3)cc2)cc1` here?
Its IC50 is 0.14 µM.

And the IC50 (Bcl-2-like protein 1 [3])?
Its IC50 is 0.086 µM.

`Nc1ncccc1OCc1ccccc1` was tested. Which Kd (Bcl-2-like protein 1 [1]) did it give?
The Kd was 692 µM.

With `Oc1cccc2c1CCCC2` as the molecule, how does the Kd (Bcl-2-like protein 1 [1]) read?
Its Kd is 4300 µM.
